Here are results for five compounds from PMC6151589, “Identification of Optically Active Pyrimidine Derivatives as Selective 5-HT2C Modulators” (Molecules : A Journal of Synthetic Chemistry and Natural …, 2017).

The target of one test is T1, 5-HT2C (Homo sapiens, UniProt P28335).
T1 construct: gene HTR2C; human recombinant receptor; crude membrane fractions of transfected cells (CHO-K1; HEK293 or CHO)
T1 sequence (P28335 33-458): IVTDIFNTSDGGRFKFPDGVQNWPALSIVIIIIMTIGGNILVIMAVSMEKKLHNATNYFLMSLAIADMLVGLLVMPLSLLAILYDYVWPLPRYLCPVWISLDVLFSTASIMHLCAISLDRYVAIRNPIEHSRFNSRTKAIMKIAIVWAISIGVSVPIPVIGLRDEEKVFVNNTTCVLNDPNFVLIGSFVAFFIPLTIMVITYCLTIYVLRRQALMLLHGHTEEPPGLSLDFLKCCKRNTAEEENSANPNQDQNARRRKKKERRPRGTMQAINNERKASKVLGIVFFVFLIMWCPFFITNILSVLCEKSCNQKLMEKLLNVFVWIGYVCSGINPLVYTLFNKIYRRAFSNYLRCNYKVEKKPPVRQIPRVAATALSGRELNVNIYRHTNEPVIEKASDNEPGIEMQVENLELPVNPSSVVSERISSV
In words: radioligand displacement, membranes. The format is binding. An excerpt:
radioligand displacement, membranes on 5-HT2C

In test [1] the target is T2, 5-HT2A (Homo sapiens, UniProt P28223).
T2 construct: gene HTR2A; human recombinant receptor; crude membrane fractions of transfected HEK293 or CHO cells
T2 sequence (P28223 whole entry): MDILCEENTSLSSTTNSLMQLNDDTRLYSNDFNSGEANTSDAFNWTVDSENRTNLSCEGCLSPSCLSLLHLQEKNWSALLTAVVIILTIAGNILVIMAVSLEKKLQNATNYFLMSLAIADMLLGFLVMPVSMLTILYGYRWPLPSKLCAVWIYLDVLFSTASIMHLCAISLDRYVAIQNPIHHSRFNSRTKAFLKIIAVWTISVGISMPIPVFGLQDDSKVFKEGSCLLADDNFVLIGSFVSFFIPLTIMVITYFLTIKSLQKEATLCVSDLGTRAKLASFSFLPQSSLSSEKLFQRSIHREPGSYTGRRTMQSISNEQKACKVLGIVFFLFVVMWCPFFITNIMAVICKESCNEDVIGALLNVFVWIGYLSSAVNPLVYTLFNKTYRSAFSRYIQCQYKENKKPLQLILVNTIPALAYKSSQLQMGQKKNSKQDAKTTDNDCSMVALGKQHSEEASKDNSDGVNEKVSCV
In words: radioligand displacement, membranes. The class given is binding. From the text: radioligand displacement, membranes on 5-HT2A

In another test the target is T3, 5-HT1D (Homo sapiens, UniProt P28221).
T3 construct: gene HTR1D; human recombinant receptor, crude membranes of HEK293 or CHO cells
T3 sequence (P28221 whole entry): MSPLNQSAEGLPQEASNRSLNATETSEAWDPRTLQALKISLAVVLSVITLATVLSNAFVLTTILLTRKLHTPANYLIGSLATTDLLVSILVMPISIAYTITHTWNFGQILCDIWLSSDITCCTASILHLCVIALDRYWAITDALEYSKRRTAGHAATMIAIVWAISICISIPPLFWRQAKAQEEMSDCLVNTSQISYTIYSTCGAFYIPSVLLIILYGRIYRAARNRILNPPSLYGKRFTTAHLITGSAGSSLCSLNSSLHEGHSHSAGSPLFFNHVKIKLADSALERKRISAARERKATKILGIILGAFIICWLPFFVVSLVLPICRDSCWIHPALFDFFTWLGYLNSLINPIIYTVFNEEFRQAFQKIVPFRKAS
In words: biochemical. Set-up: species or system HEK293 or CHO; competitive radioligand binding on crude membranes, filtration and scintillation counting. On the procedure:
(§1) Eleven dilutions (5 × assay concentration) of the test and reference compounds (Table S1) were prepared in standard binding buffer (50 mM tris(hydroxymethyl)-aminomethane-HCl (Tris-HCl), 10 mM MgCl2, 1 mM ethylenediaminetetraacetate (EDTA), pH 7.4) by serial dilution: 0.05 nM, 0.5 nM, 1.5 nM, 5 nM, 15 nM, 50 nM, 150 nM, 500 nM, 1.5 μM, 5 μM, and 50 μM. The radioligand (Table S3) was diluted to five times the assay concentration in standard binding buffer. Aliquots ([…]) of the radioligand were dispensed into the wells of a 96-well plate containing […] of standard binding buffer. Triplicate aliquots ([…]) of the test and reference compound dilutions were then added. Finally, crude membrane fractions ([…]) of cells (HEK293 or CHO) expressing human recombinant receptors were dispensed into each well. A total of […] of the reaction mixtures was incubated at room temperature and shielded from light for 1.5 h, and was then harvested by rapid filtration onto Whatman GF/B glass fiber filters presoaked with 0.3% polyethyleneimine, by using a 96-well Brandel harvester (Gaithersburg, MD, USA). Four rapid washes were performed with chilled standard binding buffer (500 mL) to decrease nonspecific binding. Filters were placed in 6 mL scintillation tubes and allowed to dry overnight. The next day, 4-mL of EcoScint scintillation cocktail (National Diagnostics) was added to each tube. The tubes were capped, labeled, and counted by [compound left out] scintillation counting. The filter mats were dried, and the scintillant was melted onto the filters, then the radioactivity retained on the filters was counted in a Microbeta scintillation counter. The IC50 values were obtained by using the Prism 4.0 program (GraphPad Software, La Jolla, CA, USA) and were converted into Ki values. Each compound was tested at least in triplicate. With each enantiomer (R)- or (S)-5d and 5e in hand, the optically active pyrimidine derivatives 4d–4e were synthesized following the same reaction sequences (Scheme 3). Finally, compounds 4d and 4e were assessed for their binding affinity to 5-HT2 receptor subtypes by radioligand binding assays. […] A further evaluation of these compounds for other 5-HT receptor subtypes was also performed and is provided in the supplementary data (Table S2). […] Considering the potencies and selectivities of 4, we can conclude that (R,R)-4e would be a viable candidate for a selective 5-HT2C modulator.

In test [2] the target is T2, 5-HT2A. In words: biochemical. More on the design: species or system HEK293 or CHO; competitive radioligand binding on crude membranes, filtration and scintillation counting. Here is the method:
as §1, with “liquid” for “[compound left out]”

The Ki is the equilibrium dissociation constant of an inhibitor or competing ligand from its target. Usually inhibition stands for the change of the read-out against control, counted positive when it falls. For the compound `C[C@H](Oc1nc(N2CCNC[C@H]2C)ncc1F)c1cccc(F)c1` [(S,R)-4d, 5-Fluoro-4-((S)-1-(3-fluorophenyl)ethoxy)-2-((R)-2-methylpiperazin-1-yl)pyrimidine], the Ki on 5-HT2C turned out to be 0.014 µM; on 5-HT2A [1], 0.475 µM. Moreover, the inhibition at 10 µM on 5-HT1D worked out at 10.3%; on 5-HT2A [2], 82.4%.
In the same order, the values of `C[C@@H]1CNCCN1c1ncc(F)c(O[C@H](C)c2cccc(F)c2)n1` [(R,R)-4d, 5-Fluoro-4-((R)-1-(3-fluorophenyl)ethoxy)-2-((R)-2-methylpiperazin-1-yl)pyrimidine] are 0.0012 µM, 0.222 µM, -6.8% and 93.3%.
Take `C[C@H](Oc1nc(N2CCNC[C@H]2C)ncc1F)c1ccc(F)cc1` [(S,R)-4e, 5-Fluoro-4-((S)-1-(4-fluorophenyl)ethoxy)-2-((R)-2-methylpiperazin-1-yl)pyrimidine]: the Ki on 5-HT2C came to 0.023 µM; at 5-HT2A [1], 1.02 µM. Also, the inhibition at 10 µM at 5-HT1D amounted to 40.4%; at 5-HT2A [2] it was 64.8%.
As for `C[C@H](Cc1cccc(F)c1)Oc1nc(N2CCNC[C@H]2C)ncc1F` [compound 3, pyrimidine analogue 3], the Ki at 5-HT2A [1] is 0.128 µM; at 5-HT1D (read-out: Ki (nM), 1D) it was 542 nM. The values for the inhibition at 10 µM on 5-HT1D and on 5-HT2A [2] were 78.3% and 95.6%, respectively.
On 5-HT2C, `C[C@@H]1CNCCN1c1ncc(F)c(O[C@H](C)c2ccc(F)cc2)n1` [(R,R)-4e, 5-Fluoro-4-((R)-1-(4-fluorophenyl)ethoxy)-2-((R)-2-methylpiperazin-1-yl)pyrimidine] registered an inhibition constant (Ki) of 0.004 µM. In addition, the “5-HT2A / %Binding” value on 5-HT2A [1] (pH 7.4, 10 mM MgCl2, room temperature, single concentration, 10 μM) came to 0.9%. Besides, the inhibition at 10 µM on 5-HT1D was -7.7%.
